Reference: US11505556B2, “Halogenated derivatives of morphinans and uses thereof” (Xalud Therapeutics, Inc., priority 2017, dated 2022)

Key:
[1] = Hepatocyte elimination of parent compound, spread across species; format: in vitro ADME; conditions: mouse, rat, dog, monkey, human, hepatocytes; lowest to highest species value; read-out: range of hepatocyte elimination half-life values across species
Protocol: Hepatocyte Elimination: (+)-NTX, AK-17 and XT-203 were incubated with cultured hepatocytes from the species listed in FIG. 9 and Table 4, and samples of the culture supernatant were collected over time. Samples were concentrated by nitrogen drying followed by reconstitution with 40% methanol for LC/MS analysis The data points were analyzed using the WinNonLin pharmacokinetics software package, and a half-life was determined that describes the rate of parent elimination. […].
(§1) In addition to the animal studies presented above in Examples 1-9, the results of in vitro testing of several of the compounds (i.e., XT-203, XT-204, and XT-206 through XT-217) are shown in Table 5 and Table 6. […]. Nine additional compounds had two or fewer off-target hits in the screening. […] These compounds spanned all of the tested N-modification classes. […]. Thus, the medicinal chemistry approach taken in this series of fluorinated compounds can yield low off-target activity and longer metabolic lifetime while preserving TLR4 antagonism. It is appreciated that further development of compounds in this class, using techniques known to those skilled in the art, may yield additional compounds with desirable pharmacologic and toxicologic characteristics.

hERG = hERG (Homo sapiens, UniProt Q12809); assay: hERG inhibition
Chain of hERG (Q12809 whole entry): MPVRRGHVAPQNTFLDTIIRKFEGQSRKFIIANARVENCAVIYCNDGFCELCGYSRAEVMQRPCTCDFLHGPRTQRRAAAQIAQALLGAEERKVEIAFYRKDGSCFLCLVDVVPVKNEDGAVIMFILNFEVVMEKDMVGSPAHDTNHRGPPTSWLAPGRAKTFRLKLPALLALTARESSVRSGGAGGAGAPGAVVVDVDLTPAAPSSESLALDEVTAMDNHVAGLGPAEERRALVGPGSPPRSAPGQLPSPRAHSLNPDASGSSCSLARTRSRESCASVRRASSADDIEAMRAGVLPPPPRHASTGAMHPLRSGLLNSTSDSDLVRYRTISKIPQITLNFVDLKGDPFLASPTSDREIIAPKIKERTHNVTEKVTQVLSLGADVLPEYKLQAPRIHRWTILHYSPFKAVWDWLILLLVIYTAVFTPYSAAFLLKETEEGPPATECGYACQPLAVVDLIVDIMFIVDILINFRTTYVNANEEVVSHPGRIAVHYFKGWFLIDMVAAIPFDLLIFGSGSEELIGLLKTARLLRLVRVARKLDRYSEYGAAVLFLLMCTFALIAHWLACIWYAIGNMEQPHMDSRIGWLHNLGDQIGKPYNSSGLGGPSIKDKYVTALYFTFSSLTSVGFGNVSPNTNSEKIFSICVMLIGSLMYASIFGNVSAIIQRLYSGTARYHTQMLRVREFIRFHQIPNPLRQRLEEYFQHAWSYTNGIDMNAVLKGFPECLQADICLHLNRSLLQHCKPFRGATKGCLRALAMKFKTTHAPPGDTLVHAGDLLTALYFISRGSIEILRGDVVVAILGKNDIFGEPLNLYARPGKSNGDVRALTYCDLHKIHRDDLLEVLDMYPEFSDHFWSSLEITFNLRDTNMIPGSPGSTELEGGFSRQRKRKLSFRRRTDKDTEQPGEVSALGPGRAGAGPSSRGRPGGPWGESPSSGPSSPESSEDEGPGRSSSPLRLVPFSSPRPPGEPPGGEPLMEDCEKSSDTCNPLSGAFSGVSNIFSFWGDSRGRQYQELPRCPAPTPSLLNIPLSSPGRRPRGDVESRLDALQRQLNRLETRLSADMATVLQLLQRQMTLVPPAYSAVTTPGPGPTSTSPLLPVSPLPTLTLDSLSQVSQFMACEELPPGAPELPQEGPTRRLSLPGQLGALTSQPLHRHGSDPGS

in vitro = conditions: rat, cultured hepatocytes
Human hepatocytes = assay: Hepatocyte elimination of parent compound; conditions: hepatocytes
Sodium channel site 2 = assay: Off-target screening; format: binding
Description: as §1

Adrenergic α2A = biological target: T1, Adrenergic α2A (Homo sapiens, UniProt P08913); assay: Off-target screening; format: binding
T1 sequence (P08913 1-465): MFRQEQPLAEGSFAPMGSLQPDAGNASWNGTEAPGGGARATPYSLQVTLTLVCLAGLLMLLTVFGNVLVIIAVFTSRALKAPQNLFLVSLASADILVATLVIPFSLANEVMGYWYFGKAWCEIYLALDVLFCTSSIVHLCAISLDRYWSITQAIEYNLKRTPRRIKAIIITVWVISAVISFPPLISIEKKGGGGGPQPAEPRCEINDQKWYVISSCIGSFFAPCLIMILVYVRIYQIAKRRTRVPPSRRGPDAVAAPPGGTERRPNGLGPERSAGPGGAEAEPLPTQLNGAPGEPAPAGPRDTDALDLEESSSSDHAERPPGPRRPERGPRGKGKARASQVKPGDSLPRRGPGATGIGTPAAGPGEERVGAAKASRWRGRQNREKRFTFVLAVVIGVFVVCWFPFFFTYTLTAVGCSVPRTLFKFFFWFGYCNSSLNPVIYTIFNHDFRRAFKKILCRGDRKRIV
Description: as §1

BV-2 cells = assay: Cell viability of BV-2 cells; format: cell-based, mouse; conditions: BV2 cells, FIGS. 7, 8B to 8D
Protocol: Cell viability was also measured by a standard assay, e.g., measurement of the release of cytoplasm-resident enzymes in the tissue culture supernatant or media to detect cell loss/lysis/rupture.

COc1ccc2c3c1O[C@@H]1C(F)CCC4[C@H](C2)N(CC2CC2)CC[C@]341 (stereo partly shown) [XT-203]
half-life [1]: 13.2 to 54.3 min
IC50 (hERG): > 100 µM
half-life (in vitro): 13.2 min
half-life in human hepatocytes compared to (+)-NTX and AK-17 (Human hepatocytes): enhanced half-life
% Inhibition at 10 μM, Sodium channel site 2 (Sodium channel site 2; 10 µM): 64%
% Inhibition at 10 μM, Sodium channel site 2 (Sodium channel site 2; listed as XT 203, 10 µM): 54%
% Inhibition at 10 μM, Adrenergic α2A (Adrenergic α2A): 99%
% Inhibition at 10 μM, Adrenergic α2A (Adrenergic α2A; listed as XT 203, 10 µM): 64%
inhibition at 1 µM (Adrenergic α2A; read-out: % inhibition at 1 μM (retest), Adrenergic α2A, 1 μM): < 50%
cell viability (BV-2 cells): good viability
